In patent publication US10473662B2, “Diagnostic and prognostic markers for cancer” (Wake Forest University Health Sciences, priority 2009, dated 2019):

How the values were obtained:
[1] = system: HME cells; assay: Labile iron pool assay (calcein) in hepcidin-treated cells; format: cell-based, human; details: 700 nM hepcidin or vehicle control (FIG. 3B)
Procedure: (§1) Human mammary epithelial (HME) cells were obtained from Lonza (Rockland, Me.). HME cells transduced with h-TERT, SV40 T antigen and high levels of H-ras are termed R5 cells in this report and were a generous gift from the laboratory of Dr. Robert Weinberg, Boston, Mass. (14). All cells were maintained at 37° C. in a humidified atmosphere containing 5% CO2. Cells were maintained in Dulbecco's […] (DMEM-F12) medium (Gibco/BRL [Grand Island, N.Y.]) supplemented with L-glutamine, 10 μg/ml insulin, 10 ng/ml human epidermal growth factor, and 0.5 μg/ml hydrocortisone for 24 hrs prior to harvest. MCF7 and MCF10A cell lines were obtained from the Wake Forest University Comprehensive Cancer Center Tissue Culture Core facility. SUM149 and SUM102 cell lines were a generous gift of Dr. I. Berquin, Wake Forest University School of Medicine. […]
The cellular labile iron pool (LIP) was measured with the fluorescent metallosensor calcein, essentially as described (20). […] Fluorescence was measured at 485 nm excitation and 535 nm emission with a fluorescence plate reader (fmax Fluorescence Microplate Reader, Molecular Devices). After the fluorescence signal was stabilized, SIH was added to remove iron from calcein, causing dequenching. The change in fluorescence following the addition of SIH (ΔF) was used as a measure of the labile iron pool.

[2] = system: ferritin H; assay: Western blot of ferritin H in hepcidin-treated cells; format: cell-based, human; details: HME cells, 300 nM or 700 nM hepcidin for 6 hours (FIG. 3C)
Procedure: as §1, with “facility.” for “facility. SUM149 and SUM102 cell lines were a generous gift of Dr. I. Berquin, Wake Forest University School of Medicine.”
(§2) Cells were washed once in phosphate-buffered saline (PBS) and scraped. […] Total protein concentrations were determined using BCA reagent (Pierce). […] Ferritin H was detected as previously described (49). Ferroportin was detected using anti-ferroportin-1 antibody (MTP-1, Alpha Diagnostics) followed by horseradish peroxidase conjugated goat anti-rabbit secondary antibody (Bio-Rad). […] Prohepcidin was detected using a rabbit polyclonal antibody (Hepcidin-25 antibody, ab75883, Abcam) followed by horseradish peroxidase conjugated goat anti-rabbit secondary antibody (Bio-Rad). […]

[3] = target: T1, ferroportin (Homo sapiens, UniProt Q9NP59); assay: Western blot of ferroportin in hepcidin-treated cells; format: cell-based; details: HME cells, 300 or 700 nM hepcidin for 6 hours (FIG. 3D)
T1 construct: endogenous in cells; host or cells: primary human mammary epithelial (HME) cells (Lonza)
T1 sequence (Q9NP59 1-571): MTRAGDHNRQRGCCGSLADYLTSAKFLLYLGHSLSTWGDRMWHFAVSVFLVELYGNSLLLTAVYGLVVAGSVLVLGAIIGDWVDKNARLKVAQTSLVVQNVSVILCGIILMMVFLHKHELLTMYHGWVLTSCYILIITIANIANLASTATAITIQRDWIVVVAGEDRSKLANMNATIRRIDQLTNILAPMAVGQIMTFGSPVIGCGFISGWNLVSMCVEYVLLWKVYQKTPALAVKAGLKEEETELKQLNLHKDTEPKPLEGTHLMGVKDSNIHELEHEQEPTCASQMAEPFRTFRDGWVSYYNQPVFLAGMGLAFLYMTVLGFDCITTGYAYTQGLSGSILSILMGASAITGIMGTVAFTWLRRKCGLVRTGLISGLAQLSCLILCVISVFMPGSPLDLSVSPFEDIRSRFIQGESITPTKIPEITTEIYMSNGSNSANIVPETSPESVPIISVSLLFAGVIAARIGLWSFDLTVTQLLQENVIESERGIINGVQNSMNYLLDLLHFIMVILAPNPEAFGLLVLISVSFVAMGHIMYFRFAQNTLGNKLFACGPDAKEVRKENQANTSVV
Procedure: as §1, with “facility.” for “facility. SUM149 and SUM102 cell lines were a generous gift of Dr. I. Berquin, Wake Forest University School of Medicine.”
as §2

## Hepcidin: Peptide hormone that binds ferroportin and triggers its degradation; obtained from Peptides International, dissolved in water
[1]
  labile iron pool: increases the labile iron pool
[2]
  levels of ferritin protein (ferritin H, Western blotting): increases levels of ferritin protein
[3]
  ferroportin protein (Western blotting): Ferroportin is degraded
